# Counter-ions that a name gives are not always drawn. Like-named read-outs stand apart in the source and are kept apart here.
# Experiments:
# [1] = tested on: NSC34 mouse motor neuronal cells; assay: NSC34 oxidative stress assay (serum withdrawal, DCF); conditions: for Lowest dose with toxicity: NSC34; for Maximal % reduction in Oxidative stress: NSC34, DCF fluorescence, negative = pro-oxidant
# Description: (§1) A simple oxidative stress assay was used to determine whether preconditioning with NRF2-ARE inducing drugs could protect against a subsequent oxidative stress insult (serum withdrawal). The NSC34, C6 and 1321N1 cells were plated in 96 well tissue culture plates to achieve 30% confluency. […] Media was then replaced with serum free, phenol free media for 5 hrs. […] Cell survival assay was then performed on the cells as protection is measured as % reduction in DCF signal, therefore data points were excluded where a decrease in cell number was measured.
# (§2) Briefly methylthiazolyldiphenyl-tetrazolium bromide (MTT) was added to the cells and a blank well to a final concentration 0.5 mg/ml and incubated at 37° C. for 1-3 hrs depending on the cell line used.
# [2] = tested on: NRF2-ARE pathway in the CHO 4× ARE-TK cell line; assay: ARE reporter assay in CHO 4×ARE-TK-GFP cell line (GFP induction, EthD1 toxicity); conditions: for maximal fold induction: read-out: Average fold GFP induction at maximal response
# Description: Chinese Hamster Ovary (CHO), NSC34 mouse motor neuronal cells, C6 (rat) and 1321N1 (human) astrocytic lines were routinely maintained in DMEM supplemented with 10% FBS and penicillin/streptomycin. […] These plasmids were transfected into CHO, C6 and 1321N1 cell lines using Lipofectamine 2000 (Invitrogen) and following 10-14 days of selection in 0.5 mg/ml G418 they were expanded and selected for basal eGFP expression using fluorescence activated cell sorting (BD, FACSAria) with two sequential cell sorts for each cell line. These mixed populations of stable transfectants with basal eGFP expression were used in subsequent assays and designated 4×ARE-TK-GFP for the ARE containing line and TK-GFP for the control cell line. […]
# Confluent cultures of 4×ARE-TK-GFP CHO or TK-GFP CHO expressing cells in 96 or 384-well tissue-culture plates were treated with drug (0.01-100 µM in triplicate) or vehicle (0.1-1% DMSO) in FCS-free DMEM in triplicate for 24 hours. The media was removed and replaced with the same volume of PBS containing 0.3 μM EthD1. […] Non-linear regression was used to fit a sigmoidal dose-response curve on a semi-Log plot to calculate the EC50 using GraphPad Prism (GraphPad Software). The reporter assay was conducted in a similar fashion in C6 and 1321N1 astrocyte cell lines stably transfected with the 4×ARE-TK-GFP and TK-GFP constructs except that Eth D1 was added directly in the media and read prior to washing the cells once and reading the […] signal. […]
# The compounds were applied in triplicate to confluent cells in 96 well plates in serum free medium for 24 hours and the induction of GFP measured in a fluorescence plate reader. […]
# [3] = tested on: C6 (rat) astrocytic line; assay: C6 oxidative stress assay (serum withdrawal, DCF); conditions: for Lowest dose with toxicity: C6; for IC50: C6, 24 h pre-treatment, serum withdrawal, DCF; for Maximal % reduction in Oxidative stress: C6, DCF fluorescence
# Description: as §1, §2
# [4] = tested on: 1321N1 (human) astrocytic line; assay: 1321N1 oxidative stress assay (serum withdrawal, DCF); conditions: for Lowest dose with toxicity: 1321N1; for IC50: 1321N1, 24 h pre-treatment, serum withdrawal, DCF; for Maximal % reduction in Oxidative stress: 1321N1, DCF fluorescence
# Description: as §1, §2
# [5] = Cricetulus griseus, 24 h, read-out: Average EC50, CHO 4×ARE-TK-GFP, GFP induction, 24 h
# [6] = Cricetulus griseus, 24 h, read-out: Average EC50
# [7] = read-out: Average EC50, CHO 4×ARE-TK-GFP, GFP induction, 24 h
Compound,Lowest dose with toxicity [1],"Lowest dose with toxicity ([2]; Chinese hamster, 24 h)","maximal fold induction ([2]; Cricetulus griseus, 24 h)",Lowest dose with toxicity [3],Lowest dose with toxicity [4],IC50 [3],Lowest dose with toxicity ([2]; CHO ARE reporter assay),other results
Cc1cc(O)c(C)c(O)c1C(=O)O [3 methylorsellinic acid],0.3 µM,100 µM,2.87,none,none,–,–,–
"C=C(CC)C(=O)c1ccc(OCC(=O)O)c(Cl)c1Cl [Ethacrynic acid, reference compound]",10 µM,100 µM,–,–,–,3.01 µM,–,–
C=CC(C1=CC(=O)C=CC1=O)c1ccccc1 (centres unmarked) [Dalbergione],none,30 µM,2.09,none,none,–,–,–
"CC(COc1ccccc1)NC(C)C(O)c1ccc(O)cc1 (centres unmarked) [Isoxsuprine hydrochloride, reference compound]",none,100 µM,1.52,none,none,23 µM,–,"EC50 [2, 5]: 8.7 µM"
"COc1cc(O)c(C)c(O)c1 [2,6-dihydroxy-4-methoxytoluene]",none,100 µM,3.05,10 µM,none,–,–,–
CC1(C)C2CC(=O)O[C@@]3(C)C4=CC(=O)O[C@@H](c5ccoc5)[C@]4(C)CCC3[C@@]2(C)C=C[C@H]1O (some centres unmarked) [Deoxyandirobin lactone],none,100 µM,3.03,none,none,–,–,–
COc1ccc(/C=C/C(=O)c2ccccc2)cc1 [4 methoxychalcone],none,–,2.13,none,none,3.55 µM,100 µM,"EC50 [2, 6]: 15 µM; IC50 [4]: 3.6 µM"
CC(=O)O[C@@H]1CC2C(C)(C)C=CC(=O)[C@]2(C)C2CC[C@@]3(C)[C@H](c4ccoc4)OC(=O)C4OC43[C@@]21C (some centres unmarked) [Isogedunin],1 µM,–,–,–,none,–,None,"Maximal % reduction in Oxidative stress [1]: 0%; Average fold GFP induction at maximal response ([2]; CHO 4×ARE-TK-GFP, 24 h): 3.11 fold; EC50 [2, 7]: 550 µM; Maximal % reduction in Oxidative stress [4]: 10%"
CCc1cccc(CC)c1N(COC)C(=O)CCl [Alachlor],–,–,–,none,–,–,–,–
"Oc1ccc(O)cc1 [hydroquinone, reference compound]",none,100 µM,2.95,none,none,–,–,–
S=C=NCc1ccccc1 [Benzyl Isothiocyanate],none,–,1.81,none,none,–,None,–
C=C(C)C(=O)C(=CC(=O)O)OC [penicillic acid],none,–,2.64,none,none,4.62 µM,100 µM,"EC50 [2, 6]: 14.9 µM"
"O=c1c2ccccc2[se]n1-c1ccccc1 [Ebselen, reference compound]",none,100 µM,2.81,none,none,–,–,–
3-alpha-hydroxygedinin,–,–,–,–,–,3.22 µM,100 µM,"Maximal % reduction in Oxidative stress [1]: 14%; Average fold GFP induction at maximal response ([2]; CHO 4×ARE-TK-GFP, 24 h): 3.01 fold; Maximal % reduction in Oxidative stress [3]: 42%; Maximal % reduction in Oxidative stress [4]: 25%"
ClC1=C(Cl)C2(Cl)C3C(Cl)C(Cl)CC3C1(Cl)C2(Cl)Cl (centres unmarked) [Chlordane],3 µM,–,1.56,none,none,3.57 µM,100 µM,"EC50 [2, 6]: 9.18 µM"
O=C1C=C2C=C[C@@H]3C[C@@]2(O1)[C@H]1CCCCN31 [Securinine],none,–,3,none,none,0.645 µM,30 µM,"EC50 [2, 6]: 2.12 µM; IC50 [4]: 18.3 µM"
OC[C@H]1O[C@@H](n2cnc3c(NCc4ccco4)ncnc32)[C@H](O)[C@@H]1O [kinetin riboside],3 µM,30 µM,1.97,10 µM,3 µM,3.84 µM,–,"EC50 [2, 5]: 3.39 µM; IC50 [4]: 0.246 µM"
CC1(C)C(=O)C=C[C@]2(C)[C@H]3CC[C@@]4(C)[C@H](c5ccoc5)OC(=O)[C@H]5O[C@]54[C@]3(C)[C@H](O)C[C@@H]12 [Deacetylgedunin],none,–,3.05,none,10 µM,5.36 µM,30 µM,"EC50 [2, 6]: 3.5 µM; IC50 [4]: 2.37 µM"
C=C(C)/C=C1/C=CC(=O)C(C)=C1 [Retusoquinone],none,100 µM,2.04,none,none,–,–,"EC50 [2, 5]: ~35 µM"
C=CC(C1=CC(=O)C(OC)=CC1=O)c1ccccc1 (centres unmarked) [4-Methoxydalbergione],none,–,–,none,none,2.5 µM,100 µM,"Maximal % reduction in Oxidative stress [1]: −44%; Average fold GFP induction at maximal response ([2]; CHO 4×ARE-TK-GFP, 24 h): 2.11 fold; EC50 [2, 7]: 11 µM; Maximal % reduction in Oxidative stress [3]: 14%; Maximal % reduction in Oxidative stress [4]: 43%"
"CC(C)(C)c1cc(O)ccc1O [tBHQ, tert-Butyl Hydroquinone, reference compound]",–,–,–,–,–,–,–,"toxicity at concentrations higher than peak expression [2]: signs of toxicity; fluorescence in the control TK-GFP cell line ([2]; control TK-GFP CHO cell line): No increase in fluorescence; concentration of peak ARE activation (GFP expression) ([2]; narrow window, 24 h, serum free medium): 10 µM"
CCCCCc1c2c(cc(O)c1C(=O)O)OC(=O)c1c(cc(OC)cc1C(=O)CCCC)O2 [Lobaric acid],none,100 µM,2.53,none,none,–,–,–
O=C(CC[N+](=O)[O-])OC[C@H]1O[C@@H](O)[C@H](OC(=O)CC[N+](=O)[O-])[C@@H](OC(=O)CC[N+](=O)[O-])[C@@H]1OC(=O)CC[N+](=O)[O-] [endecaphyllin X],10 µM,–,–,none,none,3.15 µM,None,"Maximal % reduction in Oxidative stress [1]: 0%; Average fold GFP induction at maximal response ([2]; CHO 4×ARE-TK-GFP, 24 h): 2.15 fold; EC50 [2, 7]: 18.8 µM; Maximal % reduction in Oxidative stress [3]: 40%; Maximal % reduction in Oxidative stress [4]: 56%"
3β hydroxydeoxydesacetoxy-7-oxogedunin,3 µM,–,–,none,none,3.07 µM,30 µM,"Maximal % reduction in Oxidative stress [1]: 0%; Average fold GFP induction at maximal response ([2]; CHO 4×ARE-TK-GFP, 24 h): 2.55 fold; EC50 [2, 7]: 8.71 µM; Maximal % reduction in Oxidative stress [3]: 67%; IC50 [4]: 3.96 µM; Maximal % reduction in Oxidative stress [4]: 62%"
"O=C(/C=C/c1ccc(O)cc1)c1ccc(O)cc1O [Isoliquintigenin, Isoliquiritigenin]",1 µM,30 µM,2.58,none,none,~28 µM,–,–
"O=C(CCBr)N1CCN(C(=O)CCBr)CC1 [Pipobroman, reference compound]",none,100 µM,3.21,none,10 µM,–,–,–
O=C(/C=C/c1ccc(O)cc1)c1ccccc1 [4 hydroxychalcone],–,–,1.88,–,–,–,None,"EC50 [2, 5]: 3.53 µM"

# Reference: patent publication US20110251230A1, “THERAPEUTICS FOR NEUROLOGICAL DISORDERS” (UNIVERSITY OF SHEFFIELD, priority 2008, published 2011)
